Values joined by “and” are separate entries in the source; they are usually repeats but may differ in a detail not shown here. Identical values can stand only once.
Key:
[1] = target: T1, hALDH2 (recombinant human mitochondria ALDH) (Homo sapiens, UniProt P05091); assay: ALDH2 inhibition assay (NADH formation, formaldehyde substrate); type: biochemical; conditions: for inhibition at 1 µM: read-out: hALDH2 inhibition (IC50 hALDH2 column)
T1 sequence (P05091 18-517): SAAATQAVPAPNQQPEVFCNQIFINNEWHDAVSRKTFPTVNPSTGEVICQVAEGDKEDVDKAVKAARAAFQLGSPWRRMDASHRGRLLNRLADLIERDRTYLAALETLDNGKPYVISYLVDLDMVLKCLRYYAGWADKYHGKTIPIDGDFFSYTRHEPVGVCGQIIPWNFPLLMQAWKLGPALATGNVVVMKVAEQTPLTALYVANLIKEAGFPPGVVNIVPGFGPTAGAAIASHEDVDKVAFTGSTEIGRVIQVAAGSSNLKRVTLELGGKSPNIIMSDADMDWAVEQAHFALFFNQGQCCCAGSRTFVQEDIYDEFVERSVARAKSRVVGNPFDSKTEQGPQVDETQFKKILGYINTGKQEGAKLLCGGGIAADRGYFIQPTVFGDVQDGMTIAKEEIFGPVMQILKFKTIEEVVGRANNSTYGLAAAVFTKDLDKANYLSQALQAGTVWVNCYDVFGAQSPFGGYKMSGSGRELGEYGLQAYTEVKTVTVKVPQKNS
In short: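 1 nM enzyme in 50 mM sodium phosphate pH 7.4 with 1.2 mM NAD+ and compound at 0.03–1000 nM; reaction started with 0.15 mM formaldehyde at 25 °C. NADH formation followed by fluorescence (ex 340/em 460 nm). IC50 from sigmoidal fits with floating Hill slope; apparent Ki from Morrison equation if tight binding.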

hMAO-B = target: T2, hMAO-B (Homo sapiens, UniProt P27338); assay: MAO-B inhibition assay (Amplex Red, horseradish peroxidase-coupled); type: biochemical; conditions: for hMAO-B inhibition (IC50 hMAO-B) / inhibition at 10 µM: at 10 μM; for inhibition at 10 µM: read-out: hMAO-B inhibition (IC50 hMAO-B)
T2 construct: purchased Sigma M7441
T2 sequence (P27338 1-520): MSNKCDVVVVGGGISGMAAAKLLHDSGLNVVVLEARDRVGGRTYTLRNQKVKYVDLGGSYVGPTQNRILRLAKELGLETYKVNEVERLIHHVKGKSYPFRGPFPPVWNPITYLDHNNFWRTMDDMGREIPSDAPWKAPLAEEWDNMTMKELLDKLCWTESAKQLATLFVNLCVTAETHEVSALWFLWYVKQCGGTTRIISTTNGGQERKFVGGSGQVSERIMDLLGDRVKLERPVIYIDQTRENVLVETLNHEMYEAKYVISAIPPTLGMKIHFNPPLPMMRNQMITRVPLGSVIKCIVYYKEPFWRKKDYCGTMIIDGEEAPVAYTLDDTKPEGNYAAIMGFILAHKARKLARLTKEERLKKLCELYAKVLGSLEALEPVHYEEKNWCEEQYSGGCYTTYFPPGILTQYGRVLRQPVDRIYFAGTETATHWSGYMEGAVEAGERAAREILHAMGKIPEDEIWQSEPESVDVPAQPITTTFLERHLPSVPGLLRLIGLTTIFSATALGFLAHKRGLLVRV
Experimental: MAO-A (Sigma M7316) and MAO-B (Sigma M7441) inhibition assays were conducted in 96-well micro-plates according to the method described by Zhou et al. [Analytical Biochemistry 253, 169-174, 1997]. Both assays were performed in potassium phosphate buffer (0.1 M, pH 7.5) containing 0.5 mM tyramine (Sigma T2879), 0.12 mM N-acetyl-3,7-dihydrophenoxazine (Amplex Red, Invitrogen A12222), 1.2 unit/ml horseradish peroxidase (Sigma P2088), 0.6 unit/ml MAO-A or 2.5 unit/ml MAO-B, and various concentrations of test compounds (0.1 nM to 10 uM). Reactions were initiated by the addition of a pre-mixed solution of tyramine, horseradish peroxidase and Amplex Red, and were allowed to proceed at 37° C. for 30 min. Enzyme activities were determined by measuring absorbance at 570 nm (SpectralMax Plate reader), absorbance of oxidized Amplex Red generated by this horseradish peroxidase-coupled reaction. Nonspecifically formed products were determined in the presence of 2 and 10 µM clorgyline and deprenyl for MAO-A and MAO-B, respectively. IC50 values were determined by fitting concentration-inhibition data to sigmoidal dose-response curves with two-floating parameters: IC50 and Hill coefficient.

| Compound | IC50 [1] | hMAO-B inhibition (IC50 hMAO-B) (hMAO-B) [%] | inhibition at 10 µM (hMAO-B) [%] | IC50 (hMAO-B) [µM] | inhibition at 1 µM [1] [%] |
| --- | --- | --- | --- | --- | --- |
| 3-(4-hydroxyphenyl)-7-(2-{4-[3-(trifluoromethyl)phenyl]piperazinyl}ethoxy)chromen-4-one [PT-124] | 0.018 µM | 21 |  |  |  |
| 3-(4-hydroxyphenyl)-7-[(5-(3-pyridyl)(1,3,4-oxadiazol-2-yl))ethoxy]chromen-4-one [PT-113] | 0.017 µM | 30 |  |  |  |
| 7-({5-[3-fluoro-5-(trifluoromethyl)phenyl](1,2,4-oxadiazol-3-yl)}ethoxy)-3-(4-hydroxyphenyl)chromen-4-one [PT-79] | 0.048 µM | 18 |  |  |  |
| O=c1c(-c2ccc(O)cc2)coc2cc(OCc3noc(-c4ccc(F)cc4)n3)ccc12 [PT-11, 7-{[5-(4-fluorophenyl)(1,2,4-oxadiazol-3-yl)]methoxy}-3-(4-hydroxyphenyl)chromen-4-one] | 0.016 µM and 0.02 µM |  | 35 |  |  |
| COC(=O)c1cccc(COc2ccc3c(=O)c(-c4ccc(O)cc4)coc3c2)c1 [PT-33, methyl 3-{[3-(4-hydroxyphenyl)-4-oxochromen-7-yloxy]methyl}benzoate] | 0.15 µM |  |  | 0.3 |  |
| O=c1c(-c2ccc(O)cc2)coc2cc(OCc3cc(-c4cccc(C(F)(F)F)c4)on3)ccc12 [PT-45, 3-(4-hydroxyphenyl)-7-({5-[3-(trifluoromethyl)phenyl]isoxazol-3-yl}methoxy)chromen-4-one] | 0.098 µM | 7 | 7 |  |  |
| COC(=O)c1cnc(COc2ccc3c(=O)c(-c4ccc(O)cc4)coc3c2)o1 [PT-47, methyl 2-{[3-(4-hydroxyphenyl)-4-oxochromen-7-yloxy]methyl}-1,3-oxazole-5-carboxylate] | 0.005 µM |  | 34 |  |  |
| O=c1c(-c2ccc(O)cc2)coc2cc(OC[C@H](O)CNCc3cccc(C(F)(F)F)c3)ccc12 [PT-53, 7-[(2R)-2-hydroxy-3-({[3-(trifluoromethyl)phenyl]methyl}amino)propoxy]-3-(4-hydroxyphenyl)chromen-4-one] | 0.016 µM | 19 | 19 |  |  |
| O=c1c(-c2ccc(O)cc2)coc2cc(OC[C@H](O)CNCc3cc(F)cc(F)c3)ccc12 [PT-55, 7-((2R)-3-{[(3,5-difluorophenyl)methyl]amino}-2-hydroxypropoxy)-3-(4-hydroxyphenyl)chromen-4-one] | 0.008 µM | 14 | 14 |  |  |
| C[C@@H](NCC(=O)COc1ccc2c(=O)c(-c3ccc(O)cc3)coc2c1)c1ccc(F)cc1 [PT-56, 7-(3-{[(1R)-1-(4-fluorophenyl)ethyl]amino}-2-oxopropoxy)-3-(4-hydroxyphenyl)chromen-4-one] | 0.008 µM |  | 29 |  |  |
| O=c1c(-c2ccc(O)cc2)coc2cc(OCCCc3ccccc3)ccc12 [PT-57, 3-(4-hydroxyphenyl)-7-(3-phenylpropoxy)chromen-4-one] | 0.02 µM | 27 | 27 |  |  |
| O=c1c(-c2ccc(O)cc2)coc2cc(OCc3nnc(-c4cccc(F)c4)o3)ccc12 [PT-58, 7-{[5-(3-fluorophenyl)(1,3,4-oxadiazol-2-yl)]methoxy}-3-(4-hydroxyphenyl)chromen-4-one] | 0.011 µM |  | 25 |  |  |
| O=c1c(-c2ccc(O)cc2)coc2cc(OCCc3cccc(C(F)(F)F)c3)ccc12 [PT-59, 3-(4-hydroxyphenyl)-7-{[3-(trifluoromethyl)phenyl]ethoxy}chromen-4-one] | 0.67 µM | 24 |  |  |  |
| O=c1c(-c2ccc(O)cc2)coc2cc(OCc3nnc(-c4cccc(C(F)(F)F)c4)o3)ccc12 [PT-60, 3-(4-hydroxyphenyl)-7-({5-[3-(trifluoromethyl)phenyl](1,3,4-oxadiazol-2-yl)}methoxy)chromen-4-one] | 0.042 µM |  | 13 |  |  |
| O=c1c(-c2ccc(O)cc2)coc2cc(OCc3cnc(-c4ccccc4)o3)ccc12 [PT-61, 3-(4-hydroxyphenyl)-7-[(2-phenyl(1,3-oxazol-5-yl))methoxy]chromen-4-one] | 0.096 µM |  | 17 |  |  |
| O=c1c(-c2ccc(O)cc2)coc2cc(OCc3nnc(-c4ccccc4Cl)s3)ccc12 [PT-64, 7-{[5-(2-chlorophenyl)(1,3,4-thiadiazol-2-yl)]methoxy}-3-(4-hydroxyphenyl)chromen-4-one] |  |  | 8 |  | 43 |
| Cc1nc(-c2ccc(C(F)(F)F)cc2)sc1COc1ccc2c(=O)c(-c3ccc(C#N)cc3)coc2c1 [PT-65, 4-[7-({4-methyl-2-[4-(trifluoromethyl)phenyl](1,3-thiazol-5-yl)}methoxy)-4-oxochromen-3-yl]benzenecarbonitrile] |  |  | 25 |  | 30 |
| Cc1nc(-c2ccc(C(F)(F)F)cc2)sc1COc1ccc2c(=O)c(-c3ccc(NS(C)(=O)=O)cc3)coc2c1 [PT-66, 3-{4-[(methylsulfonyl)amino]phenyl}-7-({4-methyl-2-[4-(trifluoromethyl)phenyl](1,3-thiazol-5-yl)}methoxy)chromen-4-one] |  |  | 25 |  | 48 |
| COc1ccc(-c2coc3cc(OCc4sc(-c5ccc(C(F)(F)F)cc5)nc4C)ccc3c2=O)cn1 [PT-67, 3-(6-methoxy(3-pyridyl))-7-({4-methyl-2-[4-(trifluoromethyl)phenyl](1,3-thiazol-5-yl)}methoxy)chromen-4-one] |  |  | 16 |  | 25 |
| N#Cc1ccc(-c2coc3cc(OCc4nnc(-c5cc(F)cc(C(F)(F)F)c5)o4)ccc3c2=O)cc1 [PT-68, 4-[7-({5-[5-fluoro-3-(trifluoromethyl)phenyl](1,3,4-oxadiazol-2-yl)}methoxy)-4-oxochromen-3-yl]benzenecarbonitrile] |  |  | 14 |  | 33 |
| CS(=O)(=O)Nc1ccc(-c2coc3cc(OCc4noc(-c5cc(F)cc(C(F)(F)F)c5)n4)ccc3c2=O)cc1 [PT-70, 7-({5-[3-fluoro-5-(trifluoromethyl)phenyl](1,2,4-oxadiazol-3-yl)}methoxy)-3-{4-[(methylsulfonyl)amino]phenyl}chromen-4-one] |  |  | 11 |  | 20 |
| CS(=O)(=O)c1ccc(-c2coc3cc(OCc4noc(-c5cc(F)cc(C(F)(F)F)c5)n4)ccc3c2=O)cc1 [PT-71, 7-({5-[3-fluoro-5-(trifluoromethyl)phenyl](1,2,4-oxadiazol-3-yl)}methoxy)-3-[4-(methylsulfonyl)phenyl]chromen-4-one] |  |  | 11 |  | 8 |
| CC(=O)c1cccc(-c2coc3cc(OCc4noc(-c5cc(F)cc(C(F)(F)F)c5)n4)ccc3c2=O)c1 [PT-73, 3-(3-acetylphenyl)-7-({5-[3-fluoro-5-(trifluoromethyl)phenyl](1,2,4-oxadiazol-3-yl)}methoxy)chromen-4-one] |  |  | 10 |  | 18 |
| Nc1cccc(-c2nnc(COc3ccc4c(=O)c(-c5ccc(O)cc5)coc4c3)o2)c1 [PT-121, 7-{[5-(3-aminophenyl)(1,3,4-oxadiazol-2-yl)]methoxy}-3-(4-hydroxyphenyl)chromen-4-one] | 0.011 µM |  |  |  |  |
| CCOC(=O)c1cnn(CCOc2ccc3c(=O)c(-c4ccc(O)cc4)coc3c2)c1 [PT-122, ethyl 1-{2-[3-(4-hydroxyphenyl)-4-oxochromen-7-yloxy]ethyl}pyrazole-4-carboxylate] | 0.012 µM |  |  |  |  |
